Patent US20250375413A1, “METHOD OF INHIBITING LIPASE ACTIVITY IN AGING” (The Regents of the University of California, priority 2024, published 2025)
Entries after “also recorded” stand apart in the source; their conditions may differ.

Experiments:
[1] = Effect of oral treatment on digestion / body weight; assay type: in vivo, rat; conditions: old rats, temporary oral treatment in drinking water
Text: Male Wistar rats (Harlan Sprague Dawley Inc., Indianapolis, IN) at maturity (4 months, 300 to 350 gm) and at old age (24 months, 375 to 450 gm) were included in the study. The animals were maintained on standard laboratory chow (8604 Teklad rodent diet; Harlan Laboratories, Indianapolis, Ind) without restriction and water ad libitum and maintained in a separate room without pathogen-free conditions.

[2] = tested on: pancreatic trypsin and amylase; assay: Digestive enzyme (trypsin, amylase) accumulation in the intestinal wall, whole mount co-labeling; assay type: in vivo, rat; conditions: old rats, 14 days oral; villi tips and submucosa
Text: (§1) Small intestine: Full-thickness tissue blocks of the wall of the proximal jejunum (3×5 mm) were fixed from all sides in 10% formalin. Digestive enzymes were detected with primary and secondary antibodies labeled with 3, 3′-diaminobenzidine (DAB, Peroxidase Substrate Kit, ab64238, Abcam®).
To co-label the small intestine for mucin and trypsin, the fixed intestine was immersed in the primary antibody against trypsin and stained with DAB substrate. Thereafter the tissue section was embedded in resin and sectioned into thin (1 μm) sections. The mucin label (alcian blue), was applied to the thin section, coverslipped, and imaged.

insulin receptor = assay: Brain insulin receptor extracellular domain immunolabel density; assay type: in vivo, rat; conditions: old rats, two-week treatment
Text: Sections without primary antibodies were used as negative controls.
Insulin receptors' densities on random tissue sections, labeled with an antibody against the extracellular domain, are digitally recorded by placing an optical window on the cell and determining light intensity at a constant incident light Io.

[3] = Blood glucose level at tissue collection; assay type: in vivo, rat; conditions: old rats, two-week treatment
Text: At the time of tissue collection, fresh femoral arterial blood was used to measure the blood glucose level (Contour®, Bayer® Diabetes Care, Tarrytown, NY) and the percent of glycated hemoglobin levels (AIC Home Test; Bristol-Myers Squibb®; NY, NY).

[4] = tested on: mucin layer on the epithelium of the small intestine; assay: Mucin layer density in small intestine (alcian blue); assay type: in vivo, rat; conditions: old rats, 14 days oral, upper jejunum
Text: as §1
The mucin-containing layer on the epithelial cells of the small intestine was stained using alcian blue (pH 2.5, kt 003; Diagnostic BioSystems, Pleasanton, CA) followed by a rinse in distilled water and mounted on a microscope slide (Vector Mount AQ Aqueous Mounting Medium, Vector® Laboratories, Burlington, CA).

pancreatic trypsin = conditions: old-treated rats (24 months, 14 days oral) compared with young
Description: A femoral venous catheter was placed after general anesthesia (pentobarbital sodium, 50 mg/kg [Abbott Laboratories, North Chicago, Il1], intramuscularly after local anesthesia [2% lidocaine HCl; Hospira, Inc, Lake Forrest, Il1]). Tissues (intestine, liver, lung, heart, kidney, brain, mesentery, skin) were immediately collected after euthanasia (Beuthanasia i.v., 120 mg/kg, Schering-Plough Animal Health Corp, Union, NJ), fixed (formalin, 10%, neutral buffered, 1 hr), postfixed (fresh formalin, 24 hrs), and stored (formalin, 10%). The period between initial anesthesia and fixation of the tissues was below 60 minutes. […]
Primary antibodies were diluted to 1-1.5 μl/1000 μl of phosphate-buffered saline. […] No counterstain was applied to facilitate quantitative label intensity measurements. […] For each tissue, the labeling procedures were standardized among the animal groups to permit a quantitative comparison of label densities between ages and treatment with digital image analysis.
Images of the immunolabel density were recorded at multiple magnifications (between 10× objective, numerical aperture 0.25, and 60×, numerical aperture 1.4). They were recorded under standard light conditions with fixed optical and digital camera settings (SPOT Insight® GIGABIT camera, Sterling Height) so that the camera serves as a quantitative light intensity meter without pixel intensity saturation. […]

## tranexamic acid [trypsin inhibitor]
[1]
  attenuation of digestion, such as reduction of body weight: did not lead to a detectable attenuation of digestion
[2]
  accumulation of trypsin and amylase in the intestinal wall: attenuated
Insulin receptor
  density of insulin receptor ectodomains in cerebral cortex: in part restored; also recorded: restored in part
[3]
  plasma/blood glucose level: mitigated; also recorded: restored in part
[4]
  mucin layer density on intestinal villi: partially restored; also recorded: restored in part
Pancreatic trypsin
  trypsin label density in the brain: almost reached the level in the young (no significant difference)
  trypsin label density in the mesentery: not different from the young
